Assay [1] relates to acute HIV infection of T-lymphoid cells. As to the kind of experiment: Assay for inhibition of HIV replication (spread assay). The assay is classed as cell-based, HIV-1. As to conditions: Human immunodeficiency virus 1, T-lymphoid; read-out: Spread - IC95. How it is done:
• Assay for Inhibition of HIV Replication
Assays for the inhibition of acute HIV infection of T-lymphoid cells were conducted in accordance with Vacca, J. P. et al., Proc. Natl. Acad. Sci. USA 1994, 91: 4096.

For a further assay, the target named is wild-type HIV-1 protease (Human immunodeficiency virus type 1 group M subtype B, UniProt P04585). The assay can be described thus: Assay for inhibition of microbial expressed HIV protease. Format: biochemical. The method in brief: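 Inhibition taken from HPLC (C18) product peak areas after phosphoric acid quench. Reaction: 440 micromolar Val-Ser-Gln-Asn-(betanapthyl)Ala-Pro-Ile-Val peptide, 5 pM E. coli-made protease, 1 h at 30° C, following 30 min room-temperature inhibitor preincubation in pH 5.5 acetate/NaCl/BSA buffer.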

Setting [2] is: wild-type HIV-1 protease expressed in E. coli, peptide substrate, pH 5.5, read-out: Enzyme Inhibition - IC50.

pIC50: −log10 of the molar value. Where a name gives a salt, the structure may show the parent alone. Read-outs that look alike come from different tables or passages of the source.

Turning to `CC[C@@H](CCC[C@@H](CO)N(CC(C)C)S(=O)(=O)c1ccc(CO)cc1)NC(=O)[C@@H](NC(=O)OC)C(c1ccc(F)cc1)c1ccc(F)cc1` [Example J20, N-{(1S,5S)-1-ethyl-6-hydroxy-5-[{[4-(hydroxymethyl)phenyl]sulfonyl}(isobutyl)amino]hexyl}-4-fluoro-β-(4-fluorophenyl)-Nα-(methoxycarbonyl)-L-phenylalaninamide], the IC95 in assay [1] was 50 nM. The pIC50 on wild-type HIV-1 protease (setting [2]) was 10.70.

Consider `CC[C@@H](CCC[C@@H](CO)N(CC(C)C)S(=O)(=O)c1ccc(CO)cc1)NC(=O)[C@H](Cc1ccccc1Cl)NC(=O)OC` [Example J21, 2-chloro-N-{(1S,55)-1-ethyl-6-hydroxy-5-[{[4-(hydroxymethyl)phenyl]sulfonyl}(isobutyl)amino]hexyl}-Nα-(methoxycarbonyl)-L-phenylalaninamide], for which, in assay [1], the IC95 came to 49 nM. Besides, at wild-type HIV-1 protease (setting [2]), the pIC50 was 9.38.

Regarding `COC(=O)N[C@H](C(=O)N[C@H](CCC[C@@H](CO)N(CC(C)C)S(=O)(=O)c1ccc(CO)cc1)C1CC1)C(c1ccccc1)c1ccccc1` [Example J22], the IC95 in assay [1] came out at 15 nM. For the same compound, the pIC50 at wild-type HIV-1 protease (setting [2]) was 10.49.

For the compound `COC(=O)N[C@H](C(=O)N[C@H](CCC[C@@H](CO)N(CC(C)C)S(=O)(=O)c1ccc(CO)cc1)C1CC1)C(c1ccc(F)cc1)c1ccc(F)cc1` [Example J23, N-{(1R,5S)-1-cyclopropyl-6-hydroxy-5-[{[4-(hydroxymethyl)phenyl]sulfonyl}(isobutyl)amino]hexyl}-4-fluoro-β-(4-fluorophenyl)-Nα-(methoxycarbonyl)-L-phenylalaninamide], in assay [1], the IC95 was 60 nM. Also, the pIC50 at wild-type HIV-1 protease (setting [2]) was 10.60.

`CC[C@@H](CCC[C@@H](CO)N(CC(C)C)S(=O)(=O)c1ccc(CO)cc1)NC(=O)[C@@H](NC)C(c1ccccc1)c1ccccc1` [Example J24, N-{(1S,5S)-1-ethyl-6-hydroxy-5-[{[4-(hydroxymethyl)phenyl]sulfonyl}(isobutyl)amino]hexyl}-Nα-methyl-β-phenyl-L-phenylalaninamide hydrochloride]: the IC95 in assay [1] came out at 16 nM. The same compound had a pIC50 at wild-type HIV-1 protease of 10.26.

As for `CN[C@H](C(=O)N[C@H](CCC[C@@H](CO)N(CC(C)C)S(=O)(=O)c1ccc(CO)cc1)C1CC1)C(c1ccccc1)c1ccccc1` [Example J25, N-{(1R,55)-1-cyclopropyl-6-hydroxy-5-[{[4-(hydroxymethyl)phenyl]sulfonyl}(isobutyl)amino]hexyl}-Nα-methyl-β-phenyl-L-phenylalaninamide], in assay [1], the IC95 was determined as 17 nM. In addition, the pIC50 on wild-type HIV-1 protease (setting [2]) is 10.10.

Turning to `COC(=O)N[C@@H](Cc1ccccc1Cl)C(=O)N[C@H](CCC[C@@H](CO)N(CCC(C)C)S(=O)(=O)c1ccc(CO)cc1)C(C)C` [Example J26, 2-chloro-N-{(1R,5S)-6-hydroxy-5-[{[4-(hydroxymethyl)phenyl]sulfonyl}(3-methylbutyl)amino]-1-isopropylhexyl}-Nα-(methoxycarbonyl)-L-phenylalaninamide], the IC95 in assay [1] was found to be 110 nM. Moreover, the pIC50 at wild-type HIV-1 protease (setting [2]) was 8.88.

With `CC[C@@H](CCC[C@@H](CO)N(CCC(C)C)S(=O)(=O)c1ccc(CO)cc1)NC(=O)[C@@H](NC)C(c1ccccc1)c1ccccc1` [Example J27, N-{(1S,5S)-1-ethyl-6-hydroxy-5-[{[4-(hydroxymethyl)phenyl]sulfonyl}(3-methylbutyl)amino]hexyl}-Nα-methyl-β-phenyl-L-phenylalaninamide], the IC95 in assay [1] is 6 nM. Also, the pIC50 at wild-type HIV-1 protease (setting [2]) is 10.60.

Take `CN[C@H](C(=O)N[C@H](CCC[C@@H](CO)N(CCC(C)C)S(=O)(=O)c1ccc(CO)cc1)C1CC1)C(c1ccccc1)c1ccccc1` [Example J28, N-{(1R,5S)-1-cyclopropyl-6-hydroxy-5-[{[4-(hydroxymethyl)phenyl]sulfonyl}(3-methylbutyl)amino]hexyl}-Nα-methyl-β-phenyl-L-phenylalaninamide]: the IC95 in assay [1] turned out to be 8 nM. In addition, the pIC50 on wild-type HIV-1 protease (setting [2]) is 11.00.

Turning to `CN[C@H](C(=O)N[C@H](CCC[C@@H](CO)N(CCC(C)C)S(=O)(=O)c1ccc(CO)cc1)C(C)C)C(c1ccccc1)c1ccccc1` [Example J29, N-{(1R,5S)-6-hydroxy-5-[{[4-(hydroxymethyl)phenyl]sulfonyl}(3-methylbutyl)amino]-1-isopropylhexyl}-Nα-methyl-β-phenyl-L-phenylalaninamide], the IC95 in assay [1] was found to be 16 nM. Besides, the pIC50 at wild-type HIV-1 protease (setting [2]) is 10.41.

On to `COC(=O)N[C@H](C(=O)N[C@H](CCC[C@@H](CO)N(CC(C)C)S(=O)(=O)c1ccc(CO)cc1)C(F)(F)F)C(c1ccccc1)c1ccccc1` [Example J30, N-[(1R,5S)-6-hydroxy-5-[{[4-(hydroxymethyl)phenyl]sulfonyl}(isobutyl)amino]-1-(trifluoromethyl)hexyl]-Nα-(methoxycarbonyl)-β-phenyl-L-phenylalaninamide], for which the IC95 in assay [1] was 21 nM. In addition, on wild-type HIV-1 protease (setting [2]), the pIC50 was 11.00.

Take `CC[C@@H](CCC[C@@H](CO)N(CCC(C)C)S(=O)(=O)c1ccc(CO)cc1)NC(=O)[C@@H](N)C(c1ccccc1)c1ccccc1` [Example J31, N-{(1S,5S)-1-ethyl-6-hydroxy-5-[{[4-(hydroxymethyl)phenyl]sulfonyl}(3-methylbutyl)amino]hexyl}-β-phenyl-L-phenylalaninamide hydrochloride]: the IC95 in assay [1] came to 23 nM. This compound also showed a pIC50 against wild-type HIV-1 protease of 11.00.

Take `CC[C@@H](CCC[C@@H](CO)N(CC(C)C)S(=O)(=O)c1ccc(CO)cc1)NC(=O)[C@@H](N)C(c1ccccc1)c1ccccc1` [Example J32, N-{(1S,5S)-1-ethyl-6-hydroxy-5-[{[4-(hydroxymethyl)phenyl]sulfonyl}(isobutyl)amino]hexyl}-β-phenyl-L-phenylalaninamide hydrochloride]: the IC95 in assay [1] stood at 25 nM. Moreover, the pIC50 against wild-type HIV-1 protease was 11.00.

For `CCCN([C@H](CO)CCC[C@H](CC)NC(=O)[C@@H](NC(=O)OC)C(c1ccccc1)c1ccccc1)S(=O)(=O)c1ccc(CO)cc1` [Example J34, N-{(1S,5S)-1-ethyl-6-hydroxy-5-[{[4-(hydroxymethyl)phenyl]sulfonyl}(propyl)amino]hexyl}-Nα-(methoxycarbonyl)-β-phenyl-L-phenylalaninamide], the 95% effect concentration (IC95) in assay [1] was determined as 20 nM. For the same compound, at wild-type HIV-1 protease (setting [2]), the pIC50 is 10.39.

For the compound `CC[C@@H](CCC[C@@H](CO)N(C(C)C)S(=O)(=O)c1ccc(CO)cc1)NC(=O)[C@@H](NC)C(c1ccccc1)c1ccccc1` [Example J35, N-{(1S,5S)-1-ethyl-6-hydroxy-5-[{[4-(hydroxymethyl)phenyl]sulfonyl}(isopropyl)amino]hexyl}-Nα-methyl-β-phenyl-L-phenylalaninamide hydrochloride], the IC95 in assay [1] was determined as 25 nM. This compound gave a pIC50 against wild-type HIV-1 protease of 9.24.

For `CC[C@@H](CCC[C@@H](CO)N(C(C)C)S(=O)(=O)c1ccc(CO)cc1)NC(=O)[C@@H](N)C(c1ccccc1)c1ccccc1` [Example J36, N-{(1S,5S)-1-ethyl-6-hydroxy-5-[{[4-(hydroxymethyl)phenyl]sulfonyl}(isopropyl)amino]hexyl}-β-phenyl-L-phenylalaninamide], the IC95 in assay [1] came to 27 nM. Further, the pIC50 at wild-type HIV-1 protease (setting [2]) is 10.01.

For `COC(=O)N[C@@H](Cc1ccccc1Br)C(=O)N[C@H](CCC[C@@H](CO)N(C(C)C)S(=O)(=O)c1ccc(CO)cc1)C1CC1` [Example J37, 2-bromo-N-{(1R,5S)-1-cyclopropyl-6-hydroxy-5-[{[4-(hydroxymethyl)phenyl]sulfonyl}(isopropyl)amino]hexyl}-Nβ-(methoxycarbonyl)-L-phenylalaninamide], in assay [1], the IC95 amounted to 37 nM. In addition, the pIC50 at wild-type HIV-1 protease (setting [2]) was 9.23.

Take `CCCN([C@H](CO)CCC[C@H](CC)NC(=O)[C@@H](NC)C(c1ccccc1)c1ccccc1)S(=O)(=O)c1ccc(CO)cc1` [Example J38, N-{(1S,5S)-1-ethyl-6-hydroxy-5-[{[4-(hydroxymethyl)phenyl]sulfonyl}(propyl)amino]hexyl}-Nα-methyl-β-phenyl-L-phenylalaninamide]: the IC95 in assay [1] was 34 nM. Besides, on wild-type HIV-1 protease (setting [2]), the pIC50 was 10.01.

As for `CCCN([C@H](CO)CCC[C@H](CC)NC(=O)[C@@H](N)C(c1ccccc1)c1ccccc1)S(=O)(=O)c1ccc(CO)cc1` [Example J39, N-{(1S,5S)-1-ethyl-6-hydroxy-5-[{[4-(hydroxymethyl)phenyl]sulfonyl}(propyl)amino]hexyl}-β-phenyl-L-phenylalaninamide], in assay [1], the IC95 is 39 nM. For the same compound, the pIC50 on wild-type HIV-1 protease (setting [2]) was 10.80.

As to `COC(=O)N[C@H](C(=O)N[C@H](CCC[C@@H](CO)N(C(C)C)S(=O)(=O)c1ccc(CO)cc1)C(F)(F)F)C(c1ccccc1)c1ccccc1` [Example J40, N-[(1R,5S)-6-hydroxy-5-[{[4-(hydroxymethyl)phenyl]sulfonyl}(isopropyl)amino]-1-(trifluoromethyl)hexyl]-Nα-(methoxycarbonyl)-β-phenyl-L-phenylalaninamide], the IC95 in assay [1] is 34 nM. Further, at wild-type HIV-1 protease (setting [2]), the pIC50 is 10.82.

On to `CCCN([C@H](CO)CCC[C@H](CC)NC(=O)[C@H](Cc1cccc2ccccc12)NC(=O)OC)S(=O)(=O)c1ccc(CO)cc1` [Example J41, methyl [(1S)-2-({(1S,5S)-1-ethyl-6-hydroxy-5-[{[4-(hydroxymethyl)phenyl]sulfonyl}(propyl)amino]hexyl}amino)-1-(1-naphthylmethyl)-2-oxoethyl]carbamate], for which the IC95 in assay [1] was determined as 54 nM. On wild-type HIV-1 protease (setting [2]), the pIC50 is 9.25.

With `CCCN([C@H](CO)CCC[C@@H](NC(=O)[C@H](Cc1ccccc1Cl)NC(=O)OC)C(F)(F)F)S(=O)(=O)c1ccc(CO)cc1` [Example J43, 2-chloro-N-[(1R,5S)-6-hydroxy-5-[{[4-(hydroxymethyl)phenyl]sulfonyl}(propyl)amino]-1-(trifluoromethyl)hexyl]-Nα-(methoxycarbonyl)-L-phenylalaninamide], the IC95 in assay [1] came to 116 nM. Besides, the pIC50 on wild-type HIV-1 protease (setting [2]) was 9.90.

These data come from US20100093811A1 (priority 2007, published 2010).
